The source of these data is ChEMBL document CHEMBL1201862, “PubChem BioAssay data set” (2004).

Test systems include 786-0; CCRF-CEM; DLD-1; DU-145; EKVX; HCC 2998; HOP-62; K562; KM-20L2; KM12; LOX IMVI; MDA-N; MOLT-4; SF-268; SF-295; SK-MEL-2; SK-OV-3; SNB-19; SR; T47D.
What all share (assay): NCI-60 cell line screen, 48 h

SMILES strings stand for the structures.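 Test compounds were applied to cells in 96-well plates for 48 hours at 5 doses. Here, GI50 denotes the concentration required for 50% inhibition of growth.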 The source made the active and inactive calls. Rule as the data show it: active = GI50 up to about 1.1 µM and inactive = higher.

In the case of `O=C(CCl)Nc1ccc(C(=O)N/N=C/c2ccc(Cl)cc2)cc1`, the GI50 was 1.58 µM (inactive) in the assay with 786-0; 1.82 µM (inactive) in the assay with CCRF-CEM; 2.18 µM (inactive) with DLD-1; 3.02 µM (inactive) in the assay with DU-145; 2.19 µM (inactive) in the assay with EKVX; 9.33 µM (inactive) with HCC 2998. Also, the GI50 in the assay on HOP-62 is 3.52 µM (inactive); with K562, 2.89 µM (inactive); in the assay with KM-20L2, 11.9 µM (inactive); in the assay with KM12 it was 0.889 µM (active); in the assay on LOX IMVI, 1.48 µM (inactive); in the assay with MDA-N, 1.83 µM (inactive). In addition, the GI50 with MOLT-4 was 1.9 µM (inactive); in the assay on SF-268 it was 2.07 µM (inactive); with SF-295, 4.06 µM (inactive); with SK-MEL-2 it was 5.58 µM (inactive); in the assay with SK-OV-3 it was 3.03 µM (inactive); with SNB-19 it was 7.41 µM (inactive). Further, the results for the GI50 in the assay on SR and in the assay on T47D were 1.79 µM (inactive) and 2.51 µM (inactive), respectively.
`Cc1cccc(C)c1N1C(=O)C(=O)C(c2nc3ccccc3s2)/C(=N/c2cccc3c(=O)[nH][nH]c(=O)c23)C1=O` (stereo not given): the GI50 in the assay with 786-0 is > 100 µM (inactive); with CCRF-CEM, 45.7 µM (inactive); in the assay with DLD-1 it was > 100 µM (inactive); with EKVX it was > 100 µM (inactive); in the assay on HCC 2998, > 100 µM (inactive); in the assay on HOP-62, > 100 µM (inactive). The GI50 with K562 is 98.4 µM (inactive); in the assay with KM-20L2 it was > 100 µM (inactive); in the assay on KM12, > 100 µM (inactive); with LOX IMVI, > 100 µM (inactive); in the assay on MOLT-4, 66.5 µM (inactive); in the assay on SF-268 it was > 100 µM (inactive). The GI50 is > 100 µM (inactive) with SF-295; > 100 µM (inactive) with SK-MEL-2; > 100 µM (inactive) with SK-OV-3; > 100 µM (inactive) with SNB-19; 99.5 µM (inactive) in the assay on SR.
For `O=[N+]([O-])c1ccc(Cl)c(C2CC(c3cccc4ccccc34)=Nc3ccccc3[S+]2[O-])c1` (stereo not given), the GI50 is 9.93 µM (inactive) in the assay on 786-0; 2.4 µM (inactive) in the assay with CCRF-CEM; 9.55 µM (inactive) in the assay with DLD-1; > 57.5 µM (inactive) in the assay on EKVX; 14.8 µM (inactive) in the assay on HCC 2998; 21.8 µM (inactive) with HOP-62. The GI50 is 3.97 µM (inactive) in the assay on K562; 20.2 µM (inactive) with KM-20L2; 18.9 µM (inactive) with KM12; 15.4 µM (inactive) in the assay with LOX IMVI; 3.68 µM (inactive) in the assay on MOLT-4; 18.4 µM (inactive) with SF-268. Also, the GI50 in the assay with SF-295 was 18.2 µM (inactive); in the assay on SK-MEL-2, 15.1 µM (inactive); in the assay on SK-OV-3, > 100 µM (inactive); in the assay with SNB-19 it was 29 µM (inactive); in the assay with SR, 10.5 µM (inactive).
Regarding `COc1ccc(OC)c(-c2cc(O)c3cc4c(cc3n2)OCO4)c1`, the GI50 was 6.47 µM (inactive) with 786-0; 4.36 µM (inactive) in the assay with CCRF-CEM; 3.57 µM (inactive) with DLD-1; 37.4 µM (inactive) in the assay with EKVX; 4.67 µM (inactive) with HCC 2998; 13.9 µM (inactive) with HOP-62. The GI50 was 4.11 µM (inactive) with K562; 4.14 µM (inactive) in the assay on KM-20L2; 3.86 µM (inactive) in the assay with KM12; 6.07 µM (inactive) in the assay on LOX IMVI; 6.34 µM (inactive) in the assay with MOLT-4; 7.74 µM (inactive) in the assay on SF-268. Besides, the GI50 in the assay with SF-295 was 4.15 µM (inactive); with SK-MEL-2, 4.1 µM (inactive); with SK-OV-3, 3.49 µM (inactive); with SNB-19, 18.5 µM (inactive); in the assay with SR, 3.96 µM (inactive).
Consider `CCSc1nc2sc(C)c(C)c2c(=O)n1-c1ccc(C(=O)O)cc1`, for which the GI50 is > 100 µM (inactive) with 786-0; 52.5 µM (inactive) in the assay with CCRF-CEM; 43.2 µM (inactive) with DLD-1; 54 µM (inactive) in the assay with EKVX; 85.1 µM (inactive) with HCC 2998; 88.5 µM (inactive) in the assay on HOP-62. The GI50 was 55.5 µM (inactive) in the assay with K562; > 100 µM (inactive) with KM-20L2; 54.8 µM (inactive) in the assay with KM12; 56.2 µM (inactive) in the assay with LOX IMVI; 48.5 µM (inactive) in the assay with MOLT-4; 27.2 µM (inactive) in the assay with SF-268. Also, the GI50 was 40.9 µM (inactive) with SF-295; > 100 µM (inactive) in the assay on SK-MEL-2; > 100 µM (inactive) with SK-OV-3; 31.1 µM (inactive) with SNB-19; 41.4 µM (inactive) with SR.
In the case of `CC1=C(C(=O)Nc2ccc(C)cc2)C(c2cccc([N+](=O)[O-])c2)C(C(=O)Nc2ccc(C)cc2)=C(C)N1`, the GI50 is 26.2 µM (inactive) in the assay on 786-0; 7.89 µM (inactive) in the assay on CCRF-CEM; 31.6 µM (inactive) with DLD-1; 17.1 µM (inactive) with EKVX; 30.6 µM (inactive) with HCC 2998; 29.5 µM (inactive) in the assay with HOP-62. Also, the GI50 in the assay on K562 was 16.9 µM (inactive); with KM-20L2 it was 19.4 µM (inactive); in the assay on KM12 it was 15.6 µM (inactive); in the assay with LOX IMVI it was 16.2 µM (inactive); in the assay on MOLT-4 it was 5.55 µM (inactive); with SF-268 it was 16.1 µM (inactive). The GI50 is 28.1 µM (inactive) in the assay on SF-295; 20.8 µM (inactive) in the assay with SK-MEL-2; 55.2 µM (inactive) in the assay with SK-OV-3; 28.1 µM (inactive) in the assay on SNB-19; 21.2 µM (inactive) in the assay with SR.
